Source: patent US8247211B2, “Glycopeptide antibiotics” (American Cyanamid Company, priority 2001, dated 2012)
Converted amounts (≈) assume the structure as drawn.

Key:
Assay in all cases: In vitro antibacterial evaluation: minimum inhibitory concentration (MIC), broth dilution method
Type in all cases: cell-based
Enterococcus sp. = conditions: 18 hours at 35° C.
Outline: (§1)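 NCCLS M7-A2 broth dilution with Mueller-Hinton II, testing 64-0.06 μg/mL antibiotic against 5×10^5 CFU/mL inocula. Test strains include recent methicillin-, penicillin- or vancomycin-resistant clinical isolates. MIC is the lowest concentration preventing growth.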

Escherichia coli = conditions: 18 hours at 35° C.
Outline: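 NCCLS M7-A2 broth dilution; Muller-Hinton II […]; 5×10^5 CFU/mL; 64-0.06 μg/mL. MIC = lowest concentration with no growth.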

Staphylococcus sp. = conditions: for MIC Staphylococcus aureus (ATCC 29213): strain ATCC 29213; for MIC Staphylococcus aureus (GC 1131): strain GC 1131; for MIC Staphylococcus aureus (GC 3051): strain GC 3051; for MIC Staphylococcus aureus (GC 3053): strain GC 3053; for MIC Staphylococcus aureus (GC 4541): strain GC 4541; for MIC Staphylococcus aureus (GC 4542): strain GC 4542; for MIC Staphylococcus aureus-SMITH (GC 4543): strain GC 4543; for MIC Staphylococcus aureus (GC 4544): strain GC 4544; for MIC Staphylococcus aureus (GC 4545): strain GC 4545; for MIC Staphylococcus haemolyticus (GC 4546): strain GC 4546; for MIC Coagulase Negative Staphylococcus (GC 4547): strain GC 4547; for MIC Coagulase Negative Staphylococcus (GC 4548): strain GC 4548; for MIC Coagulase Negative Staphylococcus (GC 4549): strain GC 4549; for MIC Coagulase Negative Staphylococcus (GC 4551): strain GC 4551
Outline: as §1

Streptococcus sp. = conditions: 18 hours at 35° C.
Outline: as §1

[1] = Enterococcus faecalis (ATCC 29212)
[2] = Enterococcus faecalis (GC 2242)
[3] = Enterococcus faecalis (GC 2691)
[4] = Enterococcus faecalis (GC 3059)
[5] = Enterococcus faecalis (GC 4552)
[6] = Enterococcus faecalis (GC 4553)
[7] = Enterococcus faecalis (GC 4554)
[8] = Enterococcus faecalis (GC 6189)
[9] = broth dilution, inoculum 5×10^5 CFU/mL
[10] = Streptococcus agalactiae (GC 4564)
[11] = Streptococcus pneumoniae (ATCC 6301)
[12] = Streptococcus pneumoniae (GC 1894)
[13] = Streptococcus pneumoniae (GC 4565)
[14] = Streptococcus pyogenes (GC 4563)

CCCCN1CC(C(O)C2NC(=O)C(C(O)C3CNC(=N)N3)NC(=O)C(Cc3ccc(OC4OC(CO)C(OC5OC6COC7(OC6C(O)C5O)C5CC6CC(C5)CC7C6)C(O)C4O)cc3)NC(=O)C(C(C)c3ccccc3)NC(=O)CNC(=O)C(CO)NC2=O)N(C2OC(CO)C(O)C(O)C2O)C1=N (stereo not drawn) [Example 224, Cyclo[glycyl-β-methylphenylalanyl-O-[4-O-[4,6-O-(2-adamantylidene)hexopyranosyl]hexopyranosyl]tyrosyl-3-(2-iminoimidazolidin-4-yl)seryl-3-(1-butyl-3-hexopyranosyl-2-iminoimidazolidin-4-yl)serylseryl]]
MIC Enterococcus avium (GC 4558) (Enterococcus sp.; Enterococcus avium (GC 4558)): 2 µg/mL (≈ 1.35 µM)
MIC Enterococcus faecalis (ATCC 29212) (Enterococcus sp.; [1]): 4 µg/mL (≈ 2.7 µM)
MIC Enterococcus faecalis (GC 2242) (Enterococcus sp.; [2]): 4 µg/mL (≈ 2.7 µM)
MIC Enterococcus faecalis (GC 2691) (Enterococcus sp.; [3]): 4 µg/mL (≈ 2.7 µM)
MIC Enterococcus faecalis (GC 3059) (Enterococcus sp.; [4]): 4 µg/mL (≈ 2.7 µM)
MIC Enterococcus faecalis (GC 4552) (Enterococcus sp.; [5]): 4 µg/mL (≈ 2.7 µM)
MIC Enterococcus faecalis (GC 4553) (Enterococcus sp.; [6]): 2 µg/mL (≈ 1.35 µM)
MIC Enterococcus faecalis (GC 4554) (Enterococcus sp.; [7]): 4 µg/mL (≈ 2.7 µM)
MIC Enterococcus faecalis (GC 6189) (Enterococcus sp.; [8]): 4 µg/mL (≈ 2.7 µM)
MIC Enterococcus faecium (GC 2243) (Enterococcus sp.; Enterococcus faecium (GC 2243)): 2 µg/mL (≈ 1.35 µM)
MIC Enterococcus faecium (GC 4556) (Enterococcus sp.; Enterococcus faecium (GC 4556)): 4 µg/mL (≈ 2.7 µM)
MIC Enterococcus faecium (GC 4557) (Enterococcus sp.; Enterococcus faecium (GC 4557)): 0.5 µg/mL (≈ 0.337 µM)
MIC Enterococcus avium (GC 4558) (Enterococcus sp.; [9]): 2 µg/mL (≈ 1.35 µM)
MIC Enterococcus faecalis (ATCC 29212) (Enterococcus sp.; [9]): 4 µg/mL (≈ 2.7 µM)
MIC Enterococcus faecalis (GC 2242) (Enterococcus sp.; [9]): 4 µg/mL (≈ 2.7 µM)
MIC Enterococcus faecalis (GC 2691) (Enterococcus sp.; [9]): 4 µg/mL (≈ 2.7 µM)
MIC Enterococcus faecalis (GC 3059) (Enterococcus sp.; [9]): 4 µg/mL (≈ 2.7 µM)
MIC Enterococcus faecalis (GC 4552) (Enterococcus sp.; [9]): 4 µg/mL (≈ 2.7 µM)
MIC Enterococcus faecalis (GC 4553) (Enterococcus sp.; [9]): 2 µg/mL (≈ 1.35 µM)
MIC Enterococcus faecalis (GC 4554) (Enterococcus sp.; [9]): 4 µg/mL (≈ 2.7 µM)
MIC Enterococcus faecalis (GC 6189) (Enterococcus sp.; [9]): 4 µg/mL (≈ 2.7 µM)
MIC Enterococcus faecium (GC 2243) (Enterococcus sp.; [9]): 2 µg/mL (≈ 1.35 µM)
MIC Enterococcus faecium (GC 4556) (Enterococcus sp.; [9]): 4 µg/mL (≈ 2.7 µM)
MIC Enterococcus faecium (GC 4557) (Enterococcus sp.; [9]): 0.5 µg/mL (≈ 0.337 µM)
MIC Escherichia coli (GC 4559) (Escherichia coli; Escherichia coli (GC 4559)): 64 µg/mL (≈ 43.1 µM)
MIC Escherichia coli (GC 4560) (Escherichia coli): 2 µg/mL (≈ 1.35 µM)
MIC Staphylococcus aureus (ATCC 29213) (Staphylococcus sp.): 2 µg/mL (≈ 1.35 µM)
MIC Staphylococcus aureus (GC 1131) (Staphylococcus sp.): 4 µg/mL (≈ 2.7 µM)
MIC Staphylococcus aureus (GC 3051) (Staphylococcus sp.): 2 µg/mL (≈ 1.35 µM)
MIC Staphylococcus aureus (GC 3053) (Staphylococcus sp.): 4 µg/mL (≈ 2.7 µM)
MIC Staphylococcus aureus (GC 4541) (Staphylococcus sp.): 1 µg/mL (≈ 0.674 µM)
MIC Staphylococcus aureus (GC 4542) (Staphylococcus sp.): 4 µg/mL (≈ 2.7 µM)
MIC Staphylococcus aureus-SMITH (GC 4543) (Staphylococcus sp.): 2 µg/mL (≈ 1.35 µM)
MIC Staphylococcus aureus (GC 4544) (Staphylococcus sp.): 4 µg/mL (≈ 2.7 µM)
MIC Staphylococcus aureus (GC 4545) (Staphylococcus sp.): 2 µg/mL (≈ 1.35 µM)
MIC Staphylococcus haemolyticus (GC 4546) (Staphylococcus sp.): 1 µg/mL (≈ 0.674 µM)
MIC Coagulase Negative Staphylococcus (GC 4547) (Staphylococcus sp.): 2 µg/mL (≈ 1.35 µM)
MIC Coagulase Negative Staphylococcus (GC 4548) (Staphylococcus sp.): 1 µg/mL (≈ 0.674 µM)
MIC Coagulase Negative Staphylococcus (GC 4549) (Staphylococcus sp.): 1 µg/mL (≈ 0.674 µM)
MIC Coagulase Negative Staphylococcus (GC 4551) (Staphylococcus sp.): 2 µg/mL (≈ 1.35 µM)
MIC Streptococcus agalactiae (GC 4564) (Streptococcus sp.; [10]): <0.12 µg/mL
MIC Streptococcus pneumoniae (ATCC 6301) (Streptococcus sp.; [11]): 0.25 µg/mL (≈ 0.169 µM)
MIC Streptococcus pneumoniae (GC 1894) (Streptococcus sp.; [12]): <0.12 µg/mL
MIC Streptococcus pneumoniae (GC 4565) (Streptococcus sp.; [13]): 0.25 µg/mL (≈ 0.169 µM)
MIC Streptococcus pyogenes (GC 4563) (Streptococcus sp.; [14]): 0.25 µg/mL (≈ 0.169 µM)
MIC Streptococcus agalactiae (GC 4564) (Streptococcus sp.; [9]): <0.12 µg/mL
MIC Streptococcus pneumoniae (ATCC 6301) (Streptococcus sp.; [9]): 0.25 µg/mL (≈ 0.169 µM)
MIC Streptococcus pneumoniae (GC 1894) (Streptococcus sp.; [9]): <0.12 µg/mL
MIC Streptococcus pneumoniae (GC 4565) (Streptococcus sp.; [9]): 0.25 µg/mL (≈ 0.169 µM)
MIC Streptococcus pyogenes (GC 4563) (Streptococcus sp.; [9]): 0.25 µg/mL (≈ 0.169 µM)

CC(C)=CCN1CC(C(O)C2NC(=O)C(C(O)C3CNC(=N)N3)NC(=O)C(Cc3ccc(OC4OC(CO)C(OC5OC6COC7(OC6C(O)C5O)C5CC6CC(C5)CC7C6)C(O)C4O)cc3)NC(=O)C(C(C)c3ccccc3)NC(=O)CNC(=O)C(CO)NC2=O)N(C2OC(CO)C(O)C(O)C2O)C1=N (stereo not drawn) [Example 225, Cyclo[glycyl-β-methylphenylalanyl-O-[4-O-[4,6-O-(2-adamantylidene)hexopyranosyl]hexopyranosyl]tyrosyl-3-(2-iminoimidazolidin-4-yl)seryl-3,3-hexopyranosyl-2-imino-1-(3-methylbut-2-en-1-iminoimidazolidin-4-yl]serylseryl]]
MIC Enterococcus avium (GC 4558) (Enterococcus sp.; Enterococcus avium (GC 4558)): 4 µg/mL (≈ 2.67 µM)
MIC Enterococcus faecalis (ATCC 29212) (Enterococcus sp.; [1]): 8 µg/mL (≈ 5.35 µM)
MIC Enterococcus faecalis (GC 2242) (Enterococcus sp.; [2]): 8 µg/mL (≈ 5.35 µM)
MIC Enterococcus faecalis (GC 2691) (Enterococcus sp.; [3]): 16 µg/mL (≈ 10.7 µM)
MIC Enterococcus faecalis (GC 3059) (Enterococcus sp.; [4]): 16 µg/mL (≈ 10.7 µM)
MIC Enterococcus faecalis (GC 4552) (Enterococcus sp.; [5]): 8 µg/mL (≈ 5.35 µM)
MIC Enterococcus faecalis (GC 4553) (Enterococcus sp.; [6]): 4 µg/mL (≈ 2.67 µM)
MIC Enterococcus faecalis (GC 4554) (Enterococcus sp.; [7]): 16 µg/mL (≈ 10.7 µM)
MIC Enterococcus faecalis (GC 6189) (Enterococcus sp.; [8]): 16 µg/mL (≈ 10.7 µM)
MIC Enterococcus faecium (GC 2243) (Enterococcus sp.; Enterococcus faecium (GC 2243)): 4 µg/mL (≈ 2.67 µM)
MIC Enterococcus faecium (GC 4556) (Enterococcus sp.; Enterococcus faecium (GC 4556)): 8 µg/mL (≈ 5.35 µM)
MIC Enterococcus faecium (GC 4557) (Enterococcus sp.; Enterococcus faecium (GC 4557)): 1 µg/mL (≈ 0.669 µM)
MIC Enterococcus avium (GC 4558) (Enterococcus sp.; [9]): 4 µg/mL (≈ 2.67 µM)
MIC Enterococcus faecalis (ATCC 29212) (Enterococcus sp.; [9]): 8 µg/mL (≈ 5.35 µM)
MIC Enterococcus faecalis (GC 2242) (Enterococcus sp.; [9]): 8 µg/mL (≈ 5.35 µM)
MIC Enterococcus faecalis (GC 2691) (Enterococcus sp.; [9]): 16 µg/mL (≈ 10.7 µM)
MIC Enterococcus faecalis (GC 3059) (Enterococcus sp.; [9]): 16 µg/mL (≈ 10.7 µM)
MIC Enterococcus faecalis (GC 4552) (Enterococcus sp.; [9]): 8 µg/mL (≈ 5.35 µM)
MIC Enterococcus faecalis (GC 4553) (Enterococcus sp.; [9]): 4 µg/mL (≈ 2.67 µM)
MIC Enterococcus faecalis (GC 4554) (Enterococcus sp.; [9]): 16 µg/mL (≈ 10.7 µM)
MIC Enterococcus faecalis (GC 6189) (Enterococcus sp.; [9]): 16 µg/mL (≈ 10.7 µM)
MIC Enterococcus faecium (GC 2243) (Enterococcus sp.; [9]): 4 µg/mL (≈ 2.67 µM)
MIC Enterococcus faecium (GC 4556) (Enterococcus sp.; [9]): 8 µg/mL (≈ 5.35 µM)
MIC Enterococcus faecium (GC 4557) (Enterococcus sp.; [9]): 1 µg/mL (≈ 0.669 µM)
MIC Escherichia coli (GC 4560) (Escherichia coli): 4 µg/mL (≈ 2.67 µM)
MIC Staphylococcus aureus (ATCC 29213) (Staphylococcus sp.): 4 µg/mL (≈ 2.67 µM)
MIC Staphylococcus aureus (GC 1131) (Staphylococcus sp.): 8 µg/mL (≈ 5.35 µM)
MIC Staphylococcus aureus (GC 3051) (Staphylococcus sp.): 4 µg/mL (≈ 2.67 µM)
MIC Staphylococcus aureus (GC 3053) (Staphylococcus sp.): 8 µg/mL (≈ 5.35 µM)
MIC Staphylococcus aureus (GC 4541) (Staphylococcus sp.): 4 µg/mL (≈ 2.67 µM)
MIC Staphylococcus aureus (GC 4542) (Staphylococcus sp.): 8 µg/mL (≈ 5.35 µM)
MIC Staphylococcus aureus-SMITH (GC 4543) (Staphylococcus sp.): 4 µg/mL (≈ 2.67 µM)
MIC Staphylococcus aureus (GC 4544) (Staphylococcus sp.): 8 µg/mL (≈ 5.35 µM)
MIC Staphylococcus aureus (GC 4545) (Staphylococcus sp.): 4 µg/mL (≈ 2.67 µM)
MIC Staphylococcus haemolyticus (GC 4546) (Staphylococcus sp.): 4 µg/mL (≈ 2.67 µM)
MIC Coagulase Negative Staphylococcus (GC 4547) (Staphylococcus sp.): 4 µg/mL (≈ 2.67 µM)
MIC Coagulase Negative Staphylococcus (GC 4548) (Staphylococcus sp.): 2 µg/mL (≈ 1.34 µM)
MIC Coagulase Negative Staphylococcus (GC 4549) (Staphylococcus sp.): 2 µg/mL (≈ 1.34 µM)
MIC Coagulase Negative Staphylococcus (GC 4551) (Staphylococcus sp.): 4 µg/mL (≈ 2.67 µM)
MIC Streptococcus agalactiae (GC 4564) (Streptococcus sp.; [10]): 0.5 µg/mL (≈ 0.334 µM)
MIC Streptococcus pneumoniae (ATCC 6301) (Streptococcus sp.; [11]): 0.5 µg/mL (≈ 0.334 µM)
MIC Streptococcus pneumoniae (GC 1894) (Streptococcus sp.; [12]): <0.12 µg/mL
MIC Streptococcus pneumoniae (GC 4565) (Streptococcus sp.; [13]): 1 µg/mL (≈ 0.669 µM)
MIC Streptococcus pyogenes (GC 4563) (Streptococcus sp.; [14]): 0.5 µg/mL (≈ 0.334 µM)
MIC Streptococcus agalactiae (GC 4564) (Streptococcus sp.; [9]): 0.5 µg/mL (≈ 0.334 µM)
MIC Streptococcus pneumoniae (ATCC 6301) (Streptococcus sp.; [9]): 0.5 µg/mL (≈ 0.334 µM)
MIC Streptococcus pneumoniae (GC 1894) (Streptococcus sp.; [9]): <0.12 µg/mL
MIC Streptococcus pneumoniae (GC 4565) (Streptococcus sp.; [9]): 1 µg/mL (≈ 0.669 µM)
MIC Streptococcus pyogenes (GC 4563) (Streptococcus sp.; [9]): 0.5 µg/mL (≈ 0.334 µM)
